{"source": "ChEMBL document CHEMBL4145555", "about": "“Synthetic Approaches to New Drugs Approved During 2016” (J Med Chem, 2018)", "experiment": "Half life in human plasma at 20 mg/day, po", "type": "ADME, organism-based", "data": [{"smiles": "Cl.Clc1ccc(CCCOCCCN2CCCCC2)cc1", "note": "[PITOLISANT HYDROCHLORIDE]", "values": [{"measurement": "half-life", "result": "10 to 12", "unit": "h"}]}]}
